In PubChem BioAssay AID1259407 (Chemical Carcinogenesis Research Information System (CCRIS), 2018):
Active and inactive are the calls of the source. The rule behind the calls is not given here.

Test system: CCRIS mutagenicity, Ames/micronucleus/aberration tests
Assay: CCRIS mutagenicity studies
[1] = Test System: AMES SALMONELLA TYPHIMURIUM, Strain/Indicator: TA98, Metabolic Activation: NONE, Method: PREINCUBATION
[2] = Test System: AMES SALMONELLA TYPHIMURIUM, Strain/Indicator: TA100, Metabolic Activation: NONE, Method: PREINCUBATION

COc1ccc(OC)cc1
mutagenic call (Test System: AMES SALMONELLA TYPHIMURIUM, Strain/Indicator: TA98, Metabolic Activation: HAMSTER, LIVER, S-9, AROCLOR 1254, Method: PREINCUBATION): inactive; negative
mutagenic call [1]: inactive; negative
mutagenic call (Test System: AMES SALMONELLA TYPHIMURIUM, Strain/Indicator: TA98, Metabolic Activation: RAT, LIVER, S-9, AROCLOR 1254, Method: PREINCUBATION): inactive; negative
mutagenic call (Test System: AMES SALMONELLA TYPHIMURIUM, Strain/Indicator: TA100, Metabolic Activation: HAMSTER, LIVER, S-9, AROCLOR 1254, Method: PREINCUBATION): inactive; negative
mutagenic call [2]: inactive; negative
mutagenic call (Test System: AMES SALMONELLA TYPHIMURIUM, Strain/Indicator: TA100, Metabolic Activation: RAT, LIVER, S-9, AROCLOR 1254, Method: PREINCUBATION): inactive; negative
mutagenic call (Test System: AMES SALMONELLA TYPHIMURIUM, Strain/Indicator: TA1535, Metabolic Activation: HAMSTER, LIVER, S-9, AROCLOR 1254, Method: PREINCUBATION): inactive; negative
mutagenic call (Test System: AMES SALMONELLA TYPHIMURIUM, Strain/Indicator: TA1535, Metabolic Activation: NONE, Method: PREINCUBATION): inactive; negative
mutagenic call (Test System: AMES SALMONELLA TYPHIMURIUM, Strain/Indicator: TA1535, Metabolic Activation: RAT, LIVER, S-9, AROCLOR 1254, Method: PREINCUBATION): inactive; negative
mutagenic call (Test System: AMES SALMONELLA TYPHIMURIUM, Strain/Indicator: TA1537, Metabolic Activation: HAMSTER, LIVER, S-9, AROCLOR 1254, Method: PREINCUBATION): inactive; negative
mutagenic call (Test System: AMES SALMONELLA TYPHIMURIUM, Strain/Indicator: TA1537, Metabolic Activation: NONE, Method: PREINCUBATION): inactive; negative
mutagenic call (Test System: AMES SALMONELLA TYPHIMURIUM, Strain/Indicator: TA1537, Metabolic Activation: RAT, LIVER, S-9, AROCLOR 1254, Method: PREINCUBATION): inactive; negative

COP(=O)(OC)OC
mutagenic call (Test System: AMES SALMONELLA TYPHIMURIUM, Strain/Indicator: TA98, Metabolic Activation: HAMSTER, LIVER, S-9, AROCLOR 1254 (30%), Method: PREINCUBATION): inactive; negative
mutagenic call [1]: inactive; negative
mutagenic call (Test System: AMES SALMONELLA TYPHIMURIUM, Strain/Indicator: TA98, Metabolic Activation: RAT, LIVER, S-9, AROCLOR 1254 (30%), Method: PREINCUBATION): inactive; negative
mutagenic call (Test System: AMES SALMONELLA TYPHIMURIUM, Strain/Indicator: TA100, Metabolic Activation: HAMSTER, LIVER, S-9, AROCLOR 1254 (30%), Method: PREINCUBATION): active; positive
mutagenic call [2]: inactive; negative
mutagenic call (Test System: AMES SALMONELLA TYPHIMURIUM, Strain/Indicator: TA100, Metabolic Activation: RAT, LIVER, S-9, AROCLOR 1254 (30%), Method: PREINCUBATION): active; positive
mutagenic call (Test System: AMES SALMONELLA TYPHIMURIUM, Strain/Indicator: TA102, Metabolic Activation: NONE, Method: STANDARD PLATE): inactive; negative
mutagenic call (Test System: AMES SALMONELLA TYPHIMURIUM, Strain/Indicator: TA2638, Metabolic Activation: NONE, Method: STANDARD PLATE): active; positive
mutagenic call (Test System: E. COLI, Strain/Indicator: WP2 (PKM101), Metabolic Activation: NONE, Method: STANDARD PLATE): active; positive
mutagenic call (Test System: E. COLI, Strain/Indicator: WP2 UVRA (PKM101), Metabolic Activation: NONE, Method: STANDARD PLATE): active; positive

CC(C)=C[C@H]1[C@@H](C(=O)OCc2coc(Cc3ccccc3)c2)C1(C)C
mutagenic call (Test System: AMES SALMONELLA TYPHIMURIUM, Strain/Indicator: TA98, Metabolic Activation: NONE, Method: STANDARD PLATE): inactive; negative
mutagenic call (Test System: AMES SALMONELLA TYPHIMURIUM, Strain/Indicator: TA98, Metabolic Activation: RAT, LIVER, S-9, AROCLOR 1254, Method: STANDARD PLATE): inactive; negative
mutagenic call (Test System: AMES SALMONELLA TYPHIMURIUM, Strain/Indicator: TA100, Metabolic Activation: RAT, LIVER, S-9, AROCLOR 1254, Method: STANDARD PLATE): inactive; negative
mutagenic call (Test System: CHINESE HAMSTER V-79, Strain/Indicator: V-79/6-THIOGUANINE, Metabolic Activation: NONE, Method: STANDARD PLATE): inactive; negative
mutagenic call (Test System: CHINESE HAMSTER V-79, Strain/Indicator: V-79/6-THIOGUANINE, Metabolic Activation: RAT HEPATOCYTES, Method: STANDARD PLATE): inactive; negative
mutagenic call (Test System: CHINESE HAMSTER V-79, Strain/Indicator: V-79/OUABAIN, Metabolic Activation: NONE, Method: STANDARD PLATE): inactive; negative
mutagenic call (Test System: CHINESE HAMSTER V-79, Strain/Indicator: V-79/OUABAIN, Metabolic Activation: RAT HEPATOCYTES, Method: STANDARD PLATE): inactive; negative

CN1CCc2cc3c(c4c2[C@H]1[C@H](O)c1ccccc1-4)OCO3
mutagenic call (Test System: AMES SALMONELLA TYPHIMURIUM, Strain/Indicator: TA98, Metabolic Activation: RAT, LIVER, S-9, PHENOBARBITAL AND BETA-NAPHTHOFLAVONE, Method: PREINCUBATION): active; positive
mutagenic call (Test System: AMES SALMONELLA TYPHIMURIUM, Strain/Indicator: TA100, Metabolic Activation: RAT, LIVER, S-9, PHENOBARBITAL AND BETA-NAPHTHOFLAVONE, Method: PREINCUBATION): active; positive
